Experimental data from PMC4501059, “Responding to the challenge of untreatable gonorrhea: ETX0914, a first-in-class agent with a distinct mechanism-of-action against bacterial Type II topoisomerases” (Scientific Reports, 2015).
Converted amounts (≈) assume the structure as drawn. “And” between values parts separate entries of the source, which are not always exact repeats. Identical values can stand only once.

What was measured:
USA300 NRS384 = experiment: MIC (modal, CLSI broth microdilution); assay type: cell-based, S. aureus; conditions: Staphylococcus aureus, read-out: Modal MIC
[1] = Quantitative whole-body autoradiography, tissue distribution of radioactivity; assay type: in vivo, male pigmented Lister Hood rat; conditions: rat plasma after iv infusion of 14C label
Protocol: Quantitative whole-body autoradiography. The distribution of radioactivity in male, pigmented Lister Hood rat tissues was obtained after a single intravenous infusion over 15 minutes of ^14C-AZD0914 at 25 mg/kg (51 μmol/kg, 5 MBq/kg) using quantitative whole-body autoradiography with phosphor-imaging technology. The potential of this compound and/or its metabolites to bind to melanin-containing tissues and/or to potentially bind covalently to tissues was also evaluated. The rats were sacrificed at 5 minutes, 1 hour, 4 hours, 24 hours, 48 hours, 7 days and 21 days after the end of infusion with enflurane (Efrane®, Abbott Laboratories, USA), and frozen in acetone, cooled to -70 °C with solid CO2. The 7- and 21- day animals could not be quantified as no trace of radioactivity was observed. After removal of limbs and tail, the carcass was embedded, with left lateral side uppermost, in a 2.5% (w/v) aqueous solution of caramellosum natricum and frozen for at least 10 minutes. The animal blocks were stored at -20 °C until sectioning. Sagittal whole-body sections (30 μm) were obtained to include organs and tissues of interest. At sectioning each block was mounted in a Leica CM3600 Cryomacrotome (Leica Microsystems GmbH, Germany) maintained at approximately -20 °C. All sections were dried at -20 °C for at least 1 day prior to exposure on phosphor-imaging plates. Together with two sets of calibration standards, the sections were placed on phosphor-imaging plates, which had been pre-covered with a thin plastic film. The imaging plates were exposed for 1 to 3 days at +4 to +12 °C, enclosed in light tight cassettes in a lead shielding box to protect from environmental radiation. Following exposure, the imaging plates were scanned at a pixel size of 50 μm using FLA-7000 (FujiFilm Sverige AB, Sweden). The tissues and organs of interest were quantified using AIDA 3.5 (Raytest, Germany). The quantification limit was defined as twice the background value of the imaging plate and varied between the plates from 0.23 to 0.33 nmol/g. The various tissues and organs were identified either on the autoradiograms or on the corresponding tissue sections.

[2] = tested on: mammalian erythroid cell lines; experiment: erythroid cytotoxicity (growth inhibition); assay type: cell-based; conditions: read-out: Erythroid IC50
Protocol: (§1) In vitro toxicology. Experiments for assessing micronuclei in mouse lymphoma cells^19 myeloid cytotoxicity^20 and erythroid cytotoxicity^21 were performed as described previously.

hNav1.5 = hNav1.5 (Homo sapiens, UniProt Q14524); experiment: In vitro ion channel function; assay type: cell-based; conditions: hNav1.5 IC50, Initiation of cardiac action potential/QRS interval
Chain of hNav1.5 (Q14524 whole entry): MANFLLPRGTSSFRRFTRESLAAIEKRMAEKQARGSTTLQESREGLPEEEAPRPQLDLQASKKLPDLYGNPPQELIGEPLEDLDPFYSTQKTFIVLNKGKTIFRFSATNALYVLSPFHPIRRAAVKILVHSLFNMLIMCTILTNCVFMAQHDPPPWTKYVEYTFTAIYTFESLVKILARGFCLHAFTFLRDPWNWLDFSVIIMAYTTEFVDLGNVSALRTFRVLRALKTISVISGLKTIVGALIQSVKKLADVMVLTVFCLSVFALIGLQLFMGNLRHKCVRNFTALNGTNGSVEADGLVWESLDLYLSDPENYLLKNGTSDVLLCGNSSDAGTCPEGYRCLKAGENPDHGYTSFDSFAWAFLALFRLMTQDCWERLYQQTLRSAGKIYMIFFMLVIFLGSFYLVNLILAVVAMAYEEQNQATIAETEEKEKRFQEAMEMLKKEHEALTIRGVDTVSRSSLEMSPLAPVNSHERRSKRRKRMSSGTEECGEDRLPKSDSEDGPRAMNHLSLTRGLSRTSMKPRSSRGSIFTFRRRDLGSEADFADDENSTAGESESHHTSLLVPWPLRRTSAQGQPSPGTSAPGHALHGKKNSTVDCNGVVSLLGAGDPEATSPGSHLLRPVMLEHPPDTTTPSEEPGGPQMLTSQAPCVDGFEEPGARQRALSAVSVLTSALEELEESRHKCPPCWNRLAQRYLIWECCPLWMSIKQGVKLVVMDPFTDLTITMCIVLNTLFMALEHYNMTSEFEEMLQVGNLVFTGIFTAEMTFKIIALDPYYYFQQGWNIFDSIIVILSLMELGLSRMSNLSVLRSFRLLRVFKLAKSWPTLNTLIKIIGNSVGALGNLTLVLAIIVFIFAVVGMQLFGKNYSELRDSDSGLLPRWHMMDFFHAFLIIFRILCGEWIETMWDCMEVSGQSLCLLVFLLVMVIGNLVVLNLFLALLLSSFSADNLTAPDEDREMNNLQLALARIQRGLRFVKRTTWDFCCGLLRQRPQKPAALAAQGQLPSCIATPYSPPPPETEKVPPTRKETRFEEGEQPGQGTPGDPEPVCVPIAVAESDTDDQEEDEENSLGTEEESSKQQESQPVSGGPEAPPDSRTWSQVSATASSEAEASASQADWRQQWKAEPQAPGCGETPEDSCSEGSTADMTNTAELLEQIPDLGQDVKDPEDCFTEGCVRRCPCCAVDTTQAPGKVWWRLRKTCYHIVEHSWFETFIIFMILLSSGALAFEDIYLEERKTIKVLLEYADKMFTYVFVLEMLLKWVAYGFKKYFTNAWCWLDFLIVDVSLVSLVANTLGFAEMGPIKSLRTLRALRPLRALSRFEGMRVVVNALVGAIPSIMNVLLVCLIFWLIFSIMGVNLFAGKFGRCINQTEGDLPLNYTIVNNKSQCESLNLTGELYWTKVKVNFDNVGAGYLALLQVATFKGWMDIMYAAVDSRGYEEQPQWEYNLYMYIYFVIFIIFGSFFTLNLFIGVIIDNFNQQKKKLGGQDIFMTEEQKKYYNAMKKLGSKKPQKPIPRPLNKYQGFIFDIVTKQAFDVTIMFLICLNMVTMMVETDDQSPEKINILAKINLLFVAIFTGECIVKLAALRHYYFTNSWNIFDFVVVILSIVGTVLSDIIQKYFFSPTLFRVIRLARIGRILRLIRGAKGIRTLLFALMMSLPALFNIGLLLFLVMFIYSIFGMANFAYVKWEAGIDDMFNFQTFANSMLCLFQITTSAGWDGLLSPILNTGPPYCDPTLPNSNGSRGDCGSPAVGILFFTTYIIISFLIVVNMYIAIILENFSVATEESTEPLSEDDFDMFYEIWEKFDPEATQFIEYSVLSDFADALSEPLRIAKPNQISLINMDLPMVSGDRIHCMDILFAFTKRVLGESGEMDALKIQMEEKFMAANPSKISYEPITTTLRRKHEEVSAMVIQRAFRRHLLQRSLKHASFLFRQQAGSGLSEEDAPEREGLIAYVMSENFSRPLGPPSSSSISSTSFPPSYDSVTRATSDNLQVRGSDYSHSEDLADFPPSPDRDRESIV
Source text: (§2) Supplement srep11827-s1.doc, table 3 | column: Table S2: In vitro ion channel function IC50 (µM)

Iks/Kv7.1 = Iks/Kv7.1 (Homo sapiens, UniProt P51787); experiment: In vitro ion channel function; assay type: cell-based; conditions: Iks/Kv7.1 IC50, Slowly activating K^+ delayed rectifier
Chain of Iks/Kv7.1 (P51787 whole entry): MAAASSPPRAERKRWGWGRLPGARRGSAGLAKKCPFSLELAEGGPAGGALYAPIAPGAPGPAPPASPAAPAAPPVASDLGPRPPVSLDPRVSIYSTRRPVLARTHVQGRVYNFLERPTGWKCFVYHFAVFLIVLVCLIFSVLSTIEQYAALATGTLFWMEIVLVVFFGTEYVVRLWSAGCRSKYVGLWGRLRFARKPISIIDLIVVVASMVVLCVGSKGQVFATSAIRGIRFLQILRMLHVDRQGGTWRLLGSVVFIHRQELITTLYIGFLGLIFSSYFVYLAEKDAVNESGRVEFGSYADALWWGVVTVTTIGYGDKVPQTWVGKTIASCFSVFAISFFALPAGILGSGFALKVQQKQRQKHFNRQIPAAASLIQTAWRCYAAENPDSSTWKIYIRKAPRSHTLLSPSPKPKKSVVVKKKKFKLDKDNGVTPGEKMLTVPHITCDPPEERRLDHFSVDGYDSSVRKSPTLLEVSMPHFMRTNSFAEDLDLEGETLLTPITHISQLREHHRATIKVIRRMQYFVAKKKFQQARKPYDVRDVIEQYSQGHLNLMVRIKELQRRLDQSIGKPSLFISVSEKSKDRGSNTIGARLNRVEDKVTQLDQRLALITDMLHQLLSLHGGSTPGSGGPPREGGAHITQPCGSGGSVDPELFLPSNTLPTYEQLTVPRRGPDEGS
Source text: as §2

hCav1.2 = hCav1.2 (Homo sapiens, UniProt Q13936); experiment: In vitro ion channel function; assay type: cell-based; conditions: hCav1.2 IC50, Ca^2+ entry into excitable cells
Source text: as §2

Ito/Kv4.3 = target: T1, Ito/Kv4.3 (Homo sapiens, UniProt Q9UK17); experiment: In vitro ion channel function; assay type: cell-based; conditions: Ito/Kv4.3 IC50, Transient outward K^+ early repolarization
T1 sequence (Q9UK17 1-655): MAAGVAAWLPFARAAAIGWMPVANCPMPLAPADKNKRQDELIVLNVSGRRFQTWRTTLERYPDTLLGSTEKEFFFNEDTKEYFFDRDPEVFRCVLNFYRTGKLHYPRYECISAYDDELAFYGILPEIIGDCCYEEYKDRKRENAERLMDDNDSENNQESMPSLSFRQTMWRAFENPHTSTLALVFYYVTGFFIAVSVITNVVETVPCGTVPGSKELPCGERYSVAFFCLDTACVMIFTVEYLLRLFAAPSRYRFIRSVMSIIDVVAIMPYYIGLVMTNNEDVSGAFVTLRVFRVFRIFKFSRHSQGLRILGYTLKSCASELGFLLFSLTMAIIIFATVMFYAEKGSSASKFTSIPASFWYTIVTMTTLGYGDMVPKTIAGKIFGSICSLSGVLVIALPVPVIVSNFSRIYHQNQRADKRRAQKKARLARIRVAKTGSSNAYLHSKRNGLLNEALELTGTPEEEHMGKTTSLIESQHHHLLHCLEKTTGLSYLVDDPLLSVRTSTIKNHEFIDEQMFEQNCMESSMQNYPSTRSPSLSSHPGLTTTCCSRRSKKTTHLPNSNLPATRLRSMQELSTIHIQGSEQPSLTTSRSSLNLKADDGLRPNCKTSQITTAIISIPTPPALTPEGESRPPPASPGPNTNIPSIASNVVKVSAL
Source text: as §2

[3] = hepatocyte intrinsic clearance; conditions: human, hepatocytes
DNA gyrase or Topo IV = experiment: Malachite Green based ATPase assays; assay type: biochemical
mouse lymphoma cells = experiment: in vitro mouse micronucleus aberration assay (MMA); assay type: cell-based; conditions: in vitro
Protocol: as §1

[4] = tested on: resistant isolates of S. aureus, S. pneumoniae and N. gonorrhoeae; assay type: cell-based
N. gonorrhoeae ATCC49226 = experiment: MIC (CLSI agar dilution); assay type: cell-based
[5] = 28 day oral toxicology study, dog; conditions: for Salient Pathology Findings: 1 month dog (po)
Streptococcus pneumoniae = tested on: Streptococcus pneumoniae; design: method as in ref 2 (supplement); conditions: 2324 tested; ref 2 (supplement); cited from earlier work
[6] = comparative haematology analysis in the rat, oral dosing; conditions: for AUC: Han Wistar, in vivo, po; for AUC / haematology versus vehicle control: rat; for haematology versus vehicle control: 28 d
S. aureus = conditions: 4X MIC, various strains; cited from earlier work
[7] = both, beagle, dog, plasma, po, 100 mg/kg/day
[8] = both, beagle, dog, plasma, po, 200 mg/kg/day
[9] = both, beagle, dog, plasma, po, 500 mg/kg/day

C[C@@H]1CN2c3c(cc4c(N5C(=O)OC[C@@H]5C)noc4c3F)CC3(C(=O)NC(=O)NC3=O)[C@H]2[C@H](C)O1 [ETX0914]
MIC (USA300 NRS384): 0.25 µg/mL (≈ 0.513 µM) | share of circulating radioactivity in plasma accounted for by parent [1]: ~ 90% | IC50 [2]: > 100 µM | IC50 (hNav1.5): > 333 µM | IC50 (Iks/Kv7.1): > 333 µM | IC50 (hCav1.2): 326 µM | IC50 (Ito/Kv4.3): 216 µM | hepatocyte CLint [3]: 1 µL/min/1e6 cells | inhibition of ATPase activity (DNA gyrase or Topo IV): lack of inhibition of ATPase activity | Micronucleus NOEL (mouse lymphoma cells): > 400 µM | susceptibility of GyrB\ParE mutants with reduced novobiocin susceptibility ([4]; S. aureus ARC3445, S. pneumoniae ARC2800): fully susceptible | cross-resistance of NBTI resistant S. aureus mutant ARC2796 ([4]; derived from ARC516): not cross-resistant | MIC: N. gonorrhoeae ATCC49226 (N. gonorrhoeae ATCC49226): 0.125 µg/mL (≈ 0.256 µM) | Salient Pathology Findings ([5]; 200 mg/kg/day): Testes tubular degeneration partially reversible 3 months post dosing | Salient Pathology Findings ([5]; 500 mg/kg/day): As above plus: Epididymis cellular debris Caecum/illium/rectum necrosis | NOAEL at 28 days ([5]; both, beagle, dog, in vivo, po): 100 mg/kg and 100 mg/kg/day | Cmax ([5]; both, beagle, dog, in vivo, po, 100 mg/kg): 85 µg/mL | AUC [5, 7]: 870 ± 240 µg·h/mL | Cmax [5, 7]: 90 ± 22 µg/mL | AUC [5, 8]: 2160 ± 460 µg·h/mL | Cmax [5, 8]: 210 ± 18 µg/mL | AUC [5, 9]: 2780 ± 1140 µg·h/mL | Cmax [5, 9]: 220 ± 94 µg/mL | haematology or platelet count at the NOAEL ([5]; dog): no significant changes in haematology or platelet count | finding at highest dose tested ([5]; dog, 500 mg/kg/day): tachycardia was observed | tolerated dose ([5]; dog, oral gavage, 28 days): 500 mg/kg/day | MIC90 (Streptococcus pneumoniae): 0.25^2 µg/ml | MIC Range (Streptococcus pneumoniae): ≤ 0.015 to 0.5 µg/mL | AUC ([6]; 200 mg/kg): 1100 ± 130 µM·h | AUC ([6]; 500 mg/kg): 2460 ± 470 µM·h | AUC ([6]; 1000 mg/kg): 3820 ± 650 µM·h | platelet count ([6]; data not shown): no significant changes in platelet count | haematology versus vehicle control ([6]; 2 lower doses (200, 500 mg/kg)): within statistical equivalence of the vehicle control | haematology versus vehicle control ([6]; highest dose (1000 mg/kg)): statistical elevation in reticulocytes, lymphocytes and white blood cells | frequency of resistance (S. aureus): < 1.1 × 10^−9
